The record followed here is patent publication US20230069174A1, “NITROGEN-CONTAINING HETEROCYCLIC AUTOTAXIN INHIBITOR, AND COMPOSITION CONTAINING SAME AND USE THEREOF” (SICHUAN HAISCO PHARMACEUTICAL CO., LTD., priority 2019, published 2023).

Read-outs that look alike come from different tables or passages of the source.

For this assay, the target named is T1, ATX (Homo sapiens, UniProt Q13822).
T1 construct: ATX activity was detected by detecting LPA production in pooled human plasma; from tissue; host or cells: pooled human plasma (heparin-anticoagulated whole blood, centrifuged)
Put plainly: ATX inhibitory activity: LPA production in pooled human plasma, LC-MS-MS. In kind it is biochemical. The conditions noted are these: 37° C. 2 h. The protocol:
Experimental subject: compounds to be tested.
ATX activity was detected by detecting LPA production in pooled human plasma. Whole blood anticoagulated with heparin was collected and centrifuged, and then plasma was collected. 5-μL gradient dilution of the compound to be tested or DMSO was added to 95-μL plasma, incubated at 37° C. for 2 h, then a stop solution (40 mM disodium hydrogen phosphate buffer, containing a buffer solution (containing 30 mM citric acid, pH=4)) was added. LPA in plasma was detected by LC-MS-MS before and after incubation.
LPA (18:2) and (20:4) LC-MS-MS analytical method
Using a 1.5 mL EP tube, 3.0 μL of each of the working solutions for standard curve and quality control was taken and added to 27.0 μL of water. After homogeneously mixing by vortex, 400 μL of internal standard solution was added. After homogeneously mixing by vortex, the mixture was centrifuged at 4° C. for 10 min. 180 μL of supernatant was taken and added into a 96-well plate, waiting for sample injection.
10 μL of the compound to be tested (10 mg/ml) was precisely pipetted into an EP tube, 990 μL of DMSO solution was added, and the mixture was vortexed to completely dissolve to obtain a solution (100 μg/mL).
Inhibition rate of ATX receptor activity was calculated in the following way: inhibition rate %=((LPAc−LPA0)−(LPAi−LPA0))/(LPAc−LPA0)*100%, wherein LPAc was the LPA content in plasma after DMSO was added and incubated for 2 h, LPA0 was the LPA content in plasma before DMSO was added for incubation, and LPAi was the LPA content in plasma after test compound was added and incubated for 2 h.

Where [1] appears, read: LPA 18:2 readout, read-out: Inhibitory activity against ATX receptor, LPA 18:2 IC50.
Where [2] appears, read: LPA 20:4 readout, read-out: Inhibitory activity against ATX receptor, LPA 20:4 IC50.

By IC50 is commonly meant the concentration needed to halve the response being measured.

Turning to `N#Cc1nn(CC(=O)N2CCc3[nH]nnc3C2)cc1-c1cnc(NC2Cc3ccccc3C2)nc1` [Compound 2, 4-(2-((2,3-dihydro-1H-inden-2-yl)amino)pyrimidin-5-yl)-1-(2-oxo-2-(1,4,6,7-tetrahydro-5H-[1,2,3]triazolo[4,5-c]pyridin-5-yl)ethyl)-1H-pyrazole-3-carbonitrile], the 50% inhibitory concentration (IC50) was 6.19 nM under setting [1] and 6.85 nM under setting [2]. Taken in the same sequence, the figures for `N#Cc1ccc2c(c1)CC(Nc1ncc(-c3nnc(CC(=O)N4CCc5[nH]nnc5C4)o3)cn1)C2` (stereo not drawn) [Compound 8, 2-((5-(5-(2-(6,7-dihydro-1H-[1,2,3]triazolo[4,5-c]pyridin-5(4H)-yl)-2-oxoethyl)-1,3,4-oxadiazol-2-yl)pyrimidin-2-yl)amino)-2,3-dihydro-1H-indene-5-carbonitrile] were 5.94 nM and 6.18 nM. The like results for `CC(F)(C(=O)N1CCc2[nH]nnc2C1)c1nnc(-c2cnc(NC3Cc4ccccc4C3)nc2)o1` (stereo not drawn) [Compound 27, 2-(5-(2-((2,3-dihydro-1H-inden-2-yl)amino)pyrimidin-5-yl)-1,3,4-oxadiazol-2-yl)-2-fluoro-1-(1,4,6,7-tetrahydro-5H-[1,2,3]triazolo[4,5-c]pyridin-5-yl)propan-1-one] were, in that order, 6.26 nM and 7.08 nM. Taken in the same sequence, the figures for `O=C(N1CCc2[nH]nnc2C1)C1(c2nnc(-c3cnc(NC4Cc5ccccc5C4)nc3)o2)CC1` [Compound 4, (1-(5-(2-((2,3-dihydro-1H-inden-2-yl)amino)pyrimidin-5-yl)-1,3,4-oxadiazol-2-yl)cyclopropyl)(1,4,6,7-tetrahydro-5H-[1,2,3]triazolo[4,5-c]pyridin-5-yl)methanone] were 4.93 nM and 5.33 nM. On to `O=C(N1CCc2[nH]nnc2C1)C1(c2nnc(-c3cnc(NC4Cc5ccccc5C4)nc3)o2)CCC1` [Compound 20, (1-(5-(2-((2,3-dihydro-1H-inden-2-yl)amino)pyrimidin-5-yl)-1,3,4-oxadiazol-2-yl)cyclobutyl)(1,4,6,7-tetrahydro-5H-[1,2,3]triazolo[4,5-c]pyridin-5-yl)methanone], for which the IC50 by setting is: under setting [1], 3.65 nM; under setting [2], 3.76 nM. The like results for `O=C(Cc1nnc(-c2cnc(NC3Cc4cscc4C3)nc2)o1)N1CCc2[nH]nnc2C1` [Compound 26, 2-(5-(2-((5,6-dihydro-4H-cyclopenta[c]thiophen-5-yl)amino)pyrimidin-5-yl)-1,3,4-oxadiazol-2-yl)-1-(1,4,6,7-tetrahydro-5H-[1,2,3]triazolo[4,5-c]pyridin-5-yl)ethan-1-one] were, in that order, 8.73 nM and 8.86 nM.

Consider `O=C(Cc1nnc(-c2cnc(NC3Cc4ccc(C(F)F)cc4C3)nc2)o1)N1CCc2[nH]nnc2C1` (stereo not drawn) [Compound 9, 2-(5-(2-((5-(difluoromethyl)-2,3-dihydro-1H-inden-2-yl)amino)pyrimidin-5-yl)-1,3,4-oxadiazol-2-yl)-1-(1,4,6,7-tetrahydro-5H-[1,2,3]triazolo[4,5-c]pyridin-5-yl)ethan-1-one], for which the IC50 worked out at 3.26 nM under setting [1] and 3.65 nM under setting [2]. The like results for `C#Cc1ccc2c(c1)CC(Nc1ncc(-c3nnc(CC(=O)N4CCc5[nH]nnc5C4)o3)cn1)C2` (stereo not drawn) [Compound 31, 2-(5-(2-((5-ethynyl-2,3-dihydro-1H-inden-2-yl)amino)pyrimidin-5-yl)-1,3,4-oxadiazol-2-yl)-1-(1,4,6,7-tetrahydro-5H-[1,2,3]triazolo[4,5-c]pyridin-5-yl)ethan-1-one] were, in that order, 2.61 nM and 2.85 nM. Regarding `O=C(Cn1cc(-c2cnc(NC3Cc4ccccc4C3)nc2)c(OC2CC2)n1)N1CCc2[nH]nnc2C1` [Compound 1, 2-(3-cyclopropoxy-4-(2-((2,3-dihydro-1H-inden-2-yl)amino)pyrimidin-5-yl)-1H-pyrazol-1-yl)-1-(1,4,6,7-tetrahydro-5H-[1,2,3]triazolo[4,5-c]pyridin-5-yl)ethan-1-one], under setting [1], the half-maximal inhibitory concentration (IC50) came out at 8.53 nM. With `O=C(Cc1nnc(-c2cnc(N[C@H]3Cc4ccc(-c5ccoc5)cc4C3)nc2)o1)N1CCc2[nH]nnc2C1` (single isomer, unassigned) [Compound 42], the IC50 by setting is: under setting [1], 2.86 nM; under setting [2], 2.69 nM. The like results for `O=C(Cc1nnc(-c2cnc(NC3Cc4cc5c(cc4C3)CC5)nc2)o1)N1CCc2[nH]nnc2C1` [Compound 30, 2-(5-(2-((2,4,5,6-tetrahydro-1H-cyclobuta[f]inden-5-yl)amino)pyrimidin-5-yl)-1,3,4-oxadiazol-2-yl)-1-(1,4,6,7-tetrahydro-5H-[1,2,3]triazolo[4,5-c]pyridin-5-yl)ethan-1-one] were, in that order, 1.58 nM and 1.92 nM. Turning to `C#Cc1ccc2c(c1)C[C@@H](Nc1ncc(-c3nnc(CC(=O)N4CCc5[nH]nnc5C4)o3)cn1)C2` (single isomer, unassigned) [Compound 40], the IC50 came to 1.51 nM under setting [1] and 1.56 nM under setting [2].

Consider `O=C(Cc1nnc(-c2cnc(NC3Cc4ccc(-c5ccoc5)cc4C3)nc2)o1)N1CCc2[nH]nnc2C1` (stereo not drawn) [Compound 28, 2-(5-(2-((5-(furan-3-yl)-2,3-dihydro-1H-inden-2-yl)amino)pyrimidin-5-yl)-1,3,4-oxadiazol-2-yl)-1-(1,4,6,7-tetrahydro-5H-[1,2,3]triazolo[4,5-c]pyridin-5-yl)ethan-1-one], for which the IC50 came out at 5.24 nM under setting [1] and 5.4 nM under setting [2]. The like results for `O=C(NC1(c2nnc(-c3cnc(NC4Cc5ccccc5C4)nc3)o2)CC1)N1CCc2[nH]nnc2C1` [Compound 14, N-(1-(5-(2-((2,3-dihydro-1H-inden-2-yl)amino)pyrimidin-5-yl)-1,3,4-oxadiazol-2-yl)cyclopropyl)-1,4,6,7-tetrahydro-5H-[1,2,3]triazolo[4,5-c]pyridine-5-carboxamide] were, in that order, 5.97 nM and 6.56 nM.

With `O=C(Cc1nnc(-c2cnc(NC3Cc4cc5c(cc4C3)OCO5)nc2)o1)N1CCc2nn[nH]c2C1` [Compound 29, 2-(5-(2-((6,7-dihydro-5H-indeno[5,6-d][1,3]dioxol-6-yl)amino)pyrimidin-5-yl)-1,3,4-oxadiazol-2-yl)-1-(3,4,6,7-tetrahydro-5H-[1,2,3]triazolo[4,5-c]pyridin-5-yl)ethan-1-one], the IC50 was found to be 2.75 nM under setting [1] and 3.27 nM under setting [2]. Taken in the same sequence, the figures for `O=C(Cc1nnc(-c2cnc(NC3Cc4ccc(C5CC5)cc4C3)nc2)o1)N1CCc2[nH]nnc2C1` (stereo not drawn) [Compound 7, 2-(5-(2-((5-cyclopropyl-2,3-dihydro-1H-inden-2-yl)amino)pyrimidin-5-yl)-1,3,4-oxadiazol-2-yl)-1-(1,4,6,7-tetrahydro-5H-[1,2,3]triazolo[4,5-c]pyridin-5-yl)ethan-1-one] were 7.46 nM and 7.67 nM.

Consider `CNC(=O)c1nn(CC(=O)N2CCc3[nH]nnc3C2)cc1-c1cnc(NC2Cc3ccccc3C2)nc1` [Compound 3, 4-(2-((2,3-dihydro-1H-inden-2-yl)amino)pyrimidin-5-yl)-N-methyl-1-(2-oxo-2-(1,4,6,7-tetrahydro-5H-[1,2,3]triazolo[4,5-c]pyridin-5-yl)ethyl)-1H-pyrazole-3-carboxamide], for which the IC50 reads like this: under setting [1], 5.68 nM; under setting [2], 5.65 nM.
